Assays:
Settings in all cases: 11-point 3-fold dilution, qPCR readout
FGFR1 = molecular target: T1, FGFR1 (Homo sapiens, UniProt P11362); assay: Kinase binding assay (Kd), FGFR1
T1 construct: made in house; host or cells: E. coli host derived from BL21, infected with T7 phage
Method: (§1) Kinase-tagged T7 phage strains were prepared in an E. coli host derived from the BL21 strain. E. coli were grown to log-phase and infected with T7 phage and incubated with shaking at 32° C. until lysis. The lysates were centrifuged and filtered to remove cell debris. Streptavidin-coated magnetic beads were treated with biotinylated small molecule ligands for 30 minutes at room temperature to generate affinity resins for kinase assays. The liganded beads were blocked with excess biotin and washed with blocking buffer SeaBlock (Pierce), 1% BSA, 0.05% Tween 20, 1 mM DTT to remove unbound ligand and to reduce non-specific binding. Binding reactions were assembled by combining kinases, liganded affinity beads, and test compounds in 1× binding buffer (20% SeaBlock, 0.17×PBS, 0.05% Tween 20, 6 mM DTT).
(§2) Test compounds were prepared as 111X stocks in 100% DMSO. Kds were determined using an 11-point 3-fold compound dilution series with three DMSO control points. All compounds for Kd measurements are distributed by acoustic transfer (non-contact dispensing) in 100% DMSO. The compounds were then diluted directly into the assays such that the final concentration of DMSO was 0.9%. All reactions performed in polypropylene 384-well plate. Each was a final volume of 0.02 ml. The assay plates were incubated at room temperature with shaking for 1 hour and the affinity beads were washed with wash buffer (lx PBS, 0.05% Tween 20). The beads were then re-suspended in elution buffer (lx PBS, 0.05% Tween 20, 0.5 μM non-biotinylated affinity ligand) and incubated at room temperature with shaking for 30 minutes. The kinase concentration in the eluates was measured by qPCR.
(§3) Binding constants were calculated with a standard dose-response curve using the Hill equation: […]
(§4) The Hill Slope was set to −1. Curves were fitted using a non-linear least square fit with the Levenberg-Marquardt algorithm.

FGFR2 = molecular target: T2, FGFR2 (Homo sapiens, UniProt P21802); assay: Kinase binding assay (Kd), FGFR2
T2 construct: made in house; host or cells: E. coli host derived from BL21, infected with T7 phage
Method: as §1, §2, §3, §4

FGFR3 = molecular target: T3, FGFR3 (Homo sapiens, UniProt P22607); assay: Kinase binding assay (Kd), FGFR3
T3 construct: made in house; host or cells: E. coli host derived from BL21, infected with T7 phage
Method: as §1, §2, §3, §4

FGFR3 (V555M) = molecular target: T4, FGFR3 (V555M) (Homo sapiens, UniProt P22607, V555M); assay: Kinase binding assay (Kd), FGFR3 (V555M)
T4 construct: made in house; host or cells: E. coli host derived from BL21, infected with T7 phage
Method: as §1, §2, §3, §4

FGFR4 = molecular target: T5, FGFR4 (Homo sapiens, UniProt P22455); assay: Kinase binding assay (Kd), FGFR4
T5 construct: made in house; host or cells: E. coli host derived from BL21, infected with T7 phage
Method: as §1, §2, §3, §4

T4 sequence (P22607 23-806 V555M): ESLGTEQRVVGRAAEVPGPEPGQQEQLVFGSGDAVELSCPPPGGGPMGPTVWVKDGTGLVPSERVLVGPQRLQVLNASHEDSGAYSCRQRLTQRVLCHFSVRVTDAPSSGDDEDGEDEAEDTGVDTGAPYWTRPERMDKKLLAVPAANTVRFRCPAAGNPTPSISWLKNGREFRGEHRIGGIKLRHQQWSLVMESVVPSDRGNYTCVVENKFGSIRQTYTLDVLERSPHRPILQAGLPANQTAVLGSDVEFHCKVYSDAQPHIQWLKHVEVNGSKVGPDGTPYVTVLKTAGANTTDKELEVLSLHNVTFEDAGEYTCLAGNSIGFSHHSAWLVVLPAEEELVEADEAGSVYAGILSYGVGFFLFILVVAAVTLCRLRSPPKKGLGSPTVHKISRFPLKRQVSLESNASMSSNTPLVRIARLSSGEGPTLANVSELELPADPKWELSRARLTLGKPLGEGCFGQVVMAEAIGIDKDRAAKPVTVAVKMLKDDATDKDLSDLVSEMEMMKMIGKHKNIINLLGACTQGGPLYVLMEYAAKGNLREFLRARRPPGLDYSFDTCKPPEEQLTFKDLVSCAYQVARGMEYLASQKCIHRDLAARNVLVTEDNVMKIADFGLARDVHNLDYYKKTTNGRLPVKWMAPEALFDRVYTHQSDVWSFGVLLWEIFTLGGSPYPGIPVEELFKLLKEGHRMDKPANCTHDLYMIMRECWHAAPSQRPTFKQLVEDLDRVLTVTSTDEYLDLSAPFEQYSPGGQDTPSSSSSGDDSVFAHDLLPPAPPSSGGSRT
T3 sequence (P22607 23-806): as the sequence (P22607 23-806 V555M) above, with M533V counted along it
T5 sequence (P22455 22-802): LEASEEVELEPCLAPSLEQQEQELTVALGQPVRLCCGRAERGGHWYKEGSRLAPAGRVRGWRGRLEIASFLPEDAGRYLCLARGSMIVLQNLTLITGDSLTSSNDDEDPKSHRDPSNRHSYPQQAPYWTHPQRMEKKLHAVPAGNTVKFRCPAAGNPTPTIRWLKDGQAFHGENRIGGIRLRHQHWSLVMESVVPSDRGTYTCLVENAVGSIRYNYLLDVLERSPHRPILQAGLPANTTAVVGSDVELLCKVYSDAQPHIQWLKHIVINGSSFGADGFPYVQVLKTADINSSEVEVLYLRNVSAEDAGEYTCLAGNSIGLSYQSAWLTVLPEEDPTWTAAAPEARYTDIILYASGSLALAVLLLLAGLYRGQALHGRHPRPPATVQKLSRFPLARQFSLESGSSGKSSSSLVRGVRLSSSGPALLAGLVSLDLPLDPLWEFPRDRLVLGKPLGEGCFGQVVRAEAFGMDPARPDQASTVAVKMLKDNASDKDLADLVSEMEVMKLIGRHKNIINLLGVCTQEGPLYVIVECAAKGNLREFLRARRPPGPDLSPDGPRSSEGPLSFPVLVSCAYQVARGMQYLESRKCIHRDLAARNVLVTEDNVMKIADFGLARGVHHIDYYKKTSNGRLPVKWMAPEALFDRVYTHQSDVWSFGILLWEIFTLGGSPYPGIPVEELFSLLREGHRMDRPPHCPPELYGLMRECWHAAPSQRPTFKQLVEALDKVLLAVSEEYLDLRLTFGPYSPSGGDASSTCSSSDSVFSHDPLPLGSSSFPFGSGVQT
T1 sequence (P11362 22-822): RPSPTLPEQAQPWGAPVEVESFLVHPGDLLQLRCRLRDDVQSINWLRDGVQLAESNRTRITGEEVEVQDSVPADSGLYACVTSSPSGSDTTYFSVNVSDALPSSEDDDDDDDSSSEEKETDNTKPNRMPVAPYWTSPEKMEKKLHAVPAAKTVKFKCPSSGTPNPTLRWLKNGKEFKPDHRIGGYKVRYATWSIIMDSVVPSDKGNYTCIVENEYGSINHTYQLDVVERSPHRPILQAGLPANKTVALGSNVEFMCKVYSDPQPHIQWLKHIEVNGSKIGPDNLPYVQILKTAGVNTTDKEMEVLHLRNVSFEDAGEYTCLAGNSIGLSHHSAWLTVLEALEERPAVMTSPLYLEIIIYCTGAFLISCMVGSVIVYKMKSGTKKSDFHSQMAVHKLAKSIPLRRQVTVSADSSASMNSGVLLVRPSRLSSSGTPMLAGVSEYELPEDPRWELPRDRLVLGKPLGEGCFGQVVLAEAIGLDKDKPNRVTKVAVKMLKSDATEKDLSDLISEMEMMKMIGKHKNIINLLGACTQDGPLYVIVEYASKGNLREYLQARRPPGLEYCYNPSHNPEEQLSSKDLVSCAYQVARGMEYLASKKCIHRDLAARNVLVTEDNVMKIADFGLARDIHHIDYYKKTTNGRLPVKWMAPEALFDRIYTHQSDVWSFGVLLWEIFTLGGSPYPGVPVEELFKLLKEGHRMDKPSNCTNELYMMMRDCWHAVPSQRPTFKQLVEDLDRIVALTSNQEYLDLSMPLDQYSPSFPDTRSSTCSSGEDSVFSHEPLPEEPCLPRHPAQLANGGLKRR
T2 sequence (P21802 22-821): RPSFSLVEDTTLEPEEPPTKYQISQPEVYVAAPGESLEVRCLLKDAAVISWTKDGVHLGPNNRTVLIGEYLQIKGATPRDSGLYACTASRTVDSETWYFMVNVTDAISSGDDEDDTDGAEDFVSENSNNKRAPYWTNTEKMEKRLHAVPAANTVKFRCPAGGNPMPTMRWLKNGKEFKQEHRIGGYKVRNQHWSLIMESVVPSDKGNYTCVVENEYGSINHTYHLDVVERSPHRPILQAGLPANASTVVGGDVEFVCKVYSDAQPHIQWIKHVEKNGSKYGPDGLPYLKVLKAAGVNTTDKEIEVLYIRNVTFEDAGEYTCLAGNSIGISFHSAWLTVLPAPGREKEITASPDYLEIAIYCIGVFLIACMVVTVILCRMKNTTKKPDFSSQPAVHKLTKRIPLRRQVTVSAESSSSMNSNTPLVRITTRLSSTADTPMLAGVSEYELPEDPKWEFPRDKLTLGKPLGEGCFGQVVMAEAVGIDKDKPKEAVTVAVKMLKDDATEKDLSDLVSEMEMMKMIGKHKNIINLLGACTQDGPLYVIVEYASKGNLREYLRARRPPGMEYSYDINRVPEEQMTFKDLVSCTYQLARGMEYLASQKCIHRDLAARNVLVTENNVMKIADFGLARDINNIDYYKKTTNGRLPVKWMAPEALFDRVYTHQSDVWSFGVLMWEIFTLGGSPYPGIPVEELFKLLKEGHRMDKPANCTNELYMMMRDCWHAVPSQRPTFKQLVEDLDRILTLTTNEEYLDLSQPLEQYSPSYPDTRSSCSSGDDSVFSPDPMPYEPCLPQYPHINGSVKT

Row | Structure (SMILES) | Kd (FGFR1) | Kd (FGFR2) | Kd (FGFR3) | Kd (FGFR3 (V555M)) | Kd (FGFR4)
1 | COc1cc(N2CCS(=N)(=O)CC2)ccc1Nc1nccc(-n2ccc3ccccc32)n1 [Example 45, N-[4-(1-Imino-1-oxo-1,4-thiazinan-4-yl)-2-methoxy-phenyl]-4-indol-1-yl-pyrimidin-2-amine] | 7800 nM | 9000 nM | 4900 nM | 1100 nM | 5100 nM
2 | COc1cc(N2CCS(=N)(=O)CC2)ccc1Nc1ncc(C)c(-n2ccc3ccccc32)n1 [Example 46, N-[4-(1-imino-1-oxo-1,4-thiazinan-4-yl)-2-methoxy-phenyl]-4-indol-1-yl-5-methyl-pyrimidin-2-amine] | 2700 nM | 4400 nM | 2200 nM | 160 nM | 5600 nM
3 | N=S(=O)(c1ccc(Nc2ncc(Cl)c(-c3c[nH]c4ccccc34)n2)cc1)C1CC1 (stereo not shown) [Example 47, 5-Chloro-N-[4-(cyclopropyl-sulfonimidoyl)phenyl]-4-(1H-indol-3-yl)pyrimidin-2-amine] | 18 nM | 16 nM | 37 nM | 4 nM | 190 nM
4 | Cc1cnc(Nc2ccc(S(C)(=N)=O)cc2)nc1-c1c[nH]c2ccccc12 (stereo not shown) [Example 48, 4-(1H-Indol-3-yl)-5-methyl-N-[4-(methylsulfonimidoyl)-phenyl]pyrimidin-2-amine] | 7 nM | 6 nM | 16 nM | 2 nM | 160 nM
5 | Cn1cc(-c2nc(Nc3ccc(S(=N)(=O)C4CC4)cc3)ncc2Cl)c2ccccc21 (stereo not shown) [Example 50, 5-Chloro-N-[4-(cyclopropyl-sulfonimidoyl)phenyl]-4-(1-methylindol-3-yl)pyrimidin-2-amine] | 330 nM | 170 nM | 190 nM | 26 nM | 3000 nM
6 | N=S1(=O)CCN(c2ccc(Nc3ncc(F)c(-c4c[nH]c5ccccc45)n3)cc2)CC1 [Example 58, 5-Fluoro-N-[4-(1-imino-1-oxo-1,4-thiazinan-4-yl)phenyl]-4-(1H-indol-3-yl)pyrimidin-2-amine] | 11 nM | 19 nM | 15 nM | 7 nM | 120 nM
7 | CS(C)(=O)=Nc1ccc(Nc2ncc(F)c(-c3c[nH]c4ccccc34)n2)cc1 [Example 59, N-[4-[[Dimethyl(oxo)-λ^6-sulfanylidene]amino]phenyl]-5-fluoro-4-(1H-indol-3-yl)pyrimidin-2-amine] | 18 nM | 50 nM | 22 nM | 11 nM | 130 nM
8 | C=CC(=O)Nc1ccc2c(c1)c(C)cn2-c1nc(Nc2ccc(N=S(C)(C)=O)cc2OCC)ncc1Cl [Example 65, N-[1-[5-Chloro-2-[4-[[dimethyl(oxo)-λ^6-sulfanylidene]amino]-2-ethoxy-anilino]pyrimidin-4-yl]-3-methyl-indol-5-yl]prop-2-enamide] | 4000 nM | 7900 nM | 1700 nM | 970 nM | 1300 nM
9 | CCC(=O)Nc1ccc2c(ccn2-c2nc(Nc3ccc(N=S(C)(C)=O)cc3)ncc2Cl)c1 [Example 68, N-[1-[5-Chloro-2-[4-[[dimethyl(oxo)-λ^6-sulfanylidene]amino]anilino]-pyrimidin-4-yl]indol-5-yl]propanamide] | 630 nM | 340 nM | 320 nM | 24 nM | 2400 nM
10 | C=CC(=O)Nc1ccc2c(ccn2-c2nc(Nc3ccc(S(C)(=N)=O)cc3OC)ncc2Cl)c1 (stereo not shown) [Example 71, N-[1-[5-chloro-2-[2-methoxy-4-(methylsulfonimidoyl)-anilino]pyrimidin-4-yl]indol-5-yl]prop-2-enamide] | 6000 nM | 3000 nM | 1500 nM | 140 nM | 3400 nM
11 | C=CC(=O)Nc1ccc2c(ccn2-c2nc(Nc3ccc(N4CCS(=N)(=O)CC4)cc3)ncc2Cl)c1 [Example 72] | 77 nM | 100 nM | 17 nM | 5.7 nM | 240 nM
12 | CCC(=O)Nc1ccc2c(ccn2-c2nc(Nc3ccc(N4CCS(=N)(=O)CC4)cc3)ncc2Cl)c1 [Example 73, N-[1-[5-chloro-2-[4-(1-imino-1-oxo-1,4-thiazinan-4-yl)anilino]pyrimidin-4-yl]indol-5-yl]propanamide] | 290 nM | 380 nM | 180 nM | 18 nM | 1300 nM
13 | C=CC(=O)Nc1ccc2c(ccn2-c2nc(Nc3ccc(S(C)(=N)=O)cc3OC)ncc2C)c1 (stereo not shown) [Example 75, N-[1-[2-[2-methoxy-4-(methylsulfonimidoyl)anilino]-5-methyl-pyrimidin-4-yl]indol-5-yl]prop-2-enamide] | 5000 nM | 1600 nM | 1100 nM | 380 nM | 500 nM
14 | C=CC(=O)Nc1cccc2c1ccn2-c1nc(Nc2ccc(N=S(C)(C)=O)cc2)ncc1Cl [Example 76, N-[1-[5-Chloro-2-[4-[[dimethyl(oxo)-λ^6-sulfanylidene]amino]anilino]-pyrimidin-4-yl]indol-4-yl]prop-2-enamide] | 160 nM | 370 nM | 160 nM | 12 nM | 3000 nM
15 | CCC(=O)Nc1cccc2c1ccn2-c1nc(Nc2ccc(N=S(C)(C)=O)cc2)ncc1Cl [Example 77, N-[1-[5-Chloro-2-[4-[[dimethyl(oxo)-λ^6-sulfanylidene]amino]anilino]-pyrimidin-4-yl]indol-4-yl]propanamide] | 170 nM | 260 nM | 130 nM | 7 nM | 2600 nM
16 | CS(C)(=O)=Nc1ccc(Nc2ncc(Cl)c(-n3ccc4c(NC(=O)C5CC5)cccc43)n2)cc1 [Example 78, N-[1-[5-Chloro-2-[4-[[dimethyl(oxo)-λ^6-sulfanylidene]amino]anilino]-pyrimidin-4-yl]indol-4-yl]cyclopropanecarboxamide] | 250 nM | 290 nM | 140 nM | 5 nM | 4600 nM
17 | CS(C)(=O)=Nc1ccc(Nc2ncc(Cl)c(-n3ccc4c(N)cccc43)n2)cc1 [Example 79, 1-[5-Chloro-2-[4-[[dimethyl(oxo)-λ^6-sulfanylidene]amino]anilino]-pyrimidin-4-yl]indol-4-amine] | 140 nM | 140 nM | 87 nM | 7 nM | 1000 nM
18 | CS(C)(=O)=Nc1ccc(Nc2ncc(Cl)c(-n3ccc4cc(NC(=O)C5CC5)ccc43)n2)cc1 [Example 80, N-[1-[5-Chloro-2-[4-[[dimethyl(oxo)-λ^6-sulfanylidene]amino]anilino]-pyrimidin-4-yl]indol-5-yl]cyclopropanecarboxamide] | 740 nM | 680 nM | 340 nM | 23 nM | 5300 nM
19 | C=CC(=O)Nc1cccc2c1ccn2-c1nc(Nc2ccc(N3CCS(=N)(=O)CC3)cc2)ncc1Cl [Example 81] | 51 nM | 62 nM | 23 nM | 2 nM | 1900 nM
20 | N=S1(=O)CCN(c2ccc(Nc3ncc(Cl)c(-n4ccc5c(N)cccc54)n3)cc2)CC1 [Example 82, 1-[5-Chloro-2-[4-(1-imino-1-oxo-1,4-thiazinan-4-yl)anilino]pyrimidin-4-yl]indol-4-amine] | 59 nM | 50 nM | 42 nM | 2 nM | 450 nM

Source: patent publication US20230115945A1, “AMINOPYRIMIDINE COMPOUNDS” (TYRA BIOSCIENCES, INC., priority 2019, published 2023)
